From US10526297B2, “Benzylideneguanidine derivatives and therapeutic use for the treatment of protein misfolding diseases” (United Kingdom Research and Innovation, priority 2013, dated 2020)
Like-named read-outs stand apart in the source and are kept apart here.

Assays:
[1] = system: HeLa cells; test: Assessment of Translation Rates in Stressed Cells (Test 3); details: tunicamycin 2.5 μg/ml together with compounds 50 μM, 35S-methionine labelling
[2] = system: HeLa cells; test: Assessment of Translation Rates in Unstressed Cells (Test 2); format: cell-based; details: compounds 50 μM, 0.5-7.5 h, 35S-methionine labelling
Method: Following labelling, cells were washed with ice-cold PBS and lysed in 75 μl Laemmli Buffer. […] Gels were then stained with Coomassie Brilliant Blue R-250 and analyzed by phosphorimaging.

[3] = system: HeLa cells; test: Cytoprotection from ER Stress (Test 1); details: 2.5 μg/ml tunicamycin 6 h, inhibitors 0.2-5 μM, WST-8 viability 48 h after tunicamycin, relative to control
[4] = system: PPP1R15A or PPP1R15B; test: Selectivity assessment inferred from the tests; format: cell-based; details: inferred from translation inhibition in stressed/non-stressed cells
[5] = target: PPP1R15A (GADD34) (Homo sapiens, UniProt O75807); details: cited from earlier work
[6] = system: choroidal blood flow; details: in vivo; cited from earlier work
[7] = system: Min6 and INS-1 pancreatic beta-cells; details: expression in the ER of Min6 and INS-1 cells; cited from earlier work
[8] = system: non-stressed cells; details: cited from earlier work
[9] = system: HeLa cells; details: tunicamycin, cited from earlier work
[10] = system: retinal pigment epithelium (RPE); details: rat AMD model; cited from earlier work
[11] = target: T1, PPP1R15B (CReP) (Homo sapiens, UniProt Q5SWA1); details: constitutive PPP1R15B (CReP); cited from earlier work
T1 sequence (Q5SWA1 1-713): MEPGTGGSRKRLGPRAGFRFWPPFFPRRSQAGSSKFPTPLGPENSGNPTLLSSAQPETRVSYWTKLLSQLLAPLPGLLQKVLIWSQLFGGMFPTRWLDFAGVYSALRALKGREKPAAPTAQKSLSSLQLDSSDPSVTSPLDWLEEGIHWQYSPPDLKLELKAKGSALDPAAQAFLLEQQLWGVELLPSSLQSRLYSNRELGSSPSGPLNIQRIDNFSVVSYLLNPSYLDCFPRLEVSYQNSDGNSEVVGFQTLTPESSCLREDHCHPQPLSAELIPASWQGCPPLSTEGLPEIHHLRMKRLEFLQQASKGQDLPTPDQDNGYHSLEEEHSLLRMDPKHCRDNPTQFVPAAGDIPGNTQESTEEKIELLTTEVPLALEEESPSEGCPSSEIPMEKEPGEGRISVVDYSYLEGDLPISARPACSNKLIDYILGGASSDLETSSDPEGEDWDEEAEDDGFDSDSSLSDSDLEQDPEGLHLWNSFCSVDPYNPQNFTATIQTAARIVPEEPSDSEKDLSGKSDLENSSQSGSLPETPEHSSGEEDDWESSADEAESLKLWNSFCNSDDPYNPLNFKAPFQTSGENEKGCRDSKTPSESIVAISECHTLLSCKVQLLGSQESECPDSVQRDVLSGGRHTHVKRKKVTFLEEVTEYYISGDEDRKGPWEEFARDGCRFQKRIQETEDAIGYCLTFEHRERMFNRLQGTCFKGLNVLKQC

[12] = system: prion infected mice; details: mouse, in vivo; cited from earlier work
[13] = system: mutant Huntingtin; details: cell-based assays, cited from earlier work
[14] = system: choroidal neovascularization (CNV); details: laser-induced rat AMD model; cited from earlier work
[15] = system: animal models of alpha-synucleinopathy; details: two animal models of alpha-synucleinopathy; cited from earlier work
[16] = system: G93A-SOD1 transgenic mouse; details: cited from earlier work
[17] = system: P0S63del mice; details: cited from earlier work

Chain of PPP1R15A (GADD34) (O75807 whole entry, species assumed): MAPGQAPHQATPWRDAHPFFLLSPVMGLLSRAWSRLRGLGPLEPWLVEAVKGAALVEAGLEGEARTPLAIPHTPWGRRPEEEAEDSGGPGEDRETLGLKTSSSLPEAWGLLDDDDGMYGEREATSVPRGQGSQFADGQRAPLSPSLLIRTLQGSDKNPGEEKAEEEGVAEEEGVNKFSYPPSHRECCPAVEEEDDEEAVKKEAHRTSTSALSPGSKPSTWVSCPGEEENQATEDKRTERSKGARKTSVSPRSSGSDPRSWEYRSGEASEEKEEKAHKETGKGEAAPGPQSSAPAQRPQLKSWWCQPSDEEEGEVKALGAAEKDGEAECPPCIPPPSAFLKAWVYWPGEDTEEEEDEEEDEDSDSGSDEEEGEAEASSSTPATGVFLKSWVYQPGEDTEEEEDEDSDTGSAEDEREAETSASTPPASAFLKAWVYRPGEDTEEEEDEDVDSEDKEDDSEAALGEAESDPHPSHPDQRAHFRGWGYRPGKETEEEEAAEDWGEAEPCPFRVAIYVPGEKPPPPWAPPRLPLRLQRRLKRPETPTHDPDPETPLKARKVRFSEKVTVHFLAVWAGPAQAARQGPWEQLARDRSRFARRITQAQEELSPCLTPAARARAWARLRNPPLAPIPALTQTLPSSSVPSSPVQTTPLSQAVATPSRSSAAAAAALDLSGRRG

Row | Compound | Test 3 Translation attenuation after Tm [1] | Test 2 Translation inhibition in non-stressed cells [2] | Test 1 Survival following ER stress (increase %) [3] | Selectivity assessment Selectivity towards PPP1R15A or PPP1R15B [4] | also measured
1 | N=C(N)N/N=C/c1ccccc1Br [Example 2, 1-[(E)-[(2-bromophenyl)methylidene]amino]-guanidine] | prolonged | YES | 40% | inhibit both PPP1R15A and B | –
2 | N=C(N)N/N=C/c1ccccc1F [Example 3, 1-[(E)-[(2-fluorophenyl)methylidene]amino]-guanidine] | prolonded | YES | 80% | – | –
3 | Cc1ccccc1/C=N/NC(=N)N [Example 4, 1-[(E)-[(2-methylphenyl)methylidene]amino]guanidine] | prolonged | YES | 100% | inhibit both PPP1R15A and B | –
4 | Cc1nnc(N/N=C/c2ccccc2Cl)[nH]c1=O [Example 6, 2-chlorobenzaldehyde (6-methyl-5-oxo-4,5-dihydro-1,2,4-triazin-3-yl)hydrazone] | prolonged | – | 120% | confirmed selective inhibitors of PPP1R15A | –
5 | N=C(N)N/N=C/c1ccc(F)cc1Cl [Example 7, 1-[(E)-[(2-chloro-4-fluorophenyl)methylidene]amino]guanidine] | prolonged | YES | 160% | inhibit both PPP1R15A and B | –
6 | CC(=O)NC(=N)N/N=C/c1ccccc1Cl [Example 8, N-{N-[(E)-[(2-chlorophenyl)methylidene]amino]carbamimidoyl}acetamide] | prolonged | YES | 100% | inhibit both PPP1R15A and B | –
7 | COC(=O)NC(=N)N/N=C/c1ccccc1Cl [Example 9, methyl N-{N-[(E)-[(2-chlorophenyl)methylidene]amino]carbamimidoyl}carbamate] | – | – | 20% | – | –
8 | N=C(N)N/N=C/c1ccncc1Cl [Example 13, 1-[(E)-[(3-chloropyridin-4-yl)methylidene]amino]guanidine] | – | – | 60-80% | – | –
9 | N=C(N)N/N=C/c1c(F)cccc1Cl [Example 15, 1-[(E)-[(2-chloro-6-fluorophenyl)methylidene]amino]guanidine] | prolonged | – | 160% | – | –
10 | N=C(N)N/N=C/c1c(F)cncc1Cl [Example 16, 1-[(E)-[(3-chloro-5-fluoropyridin-4-yl)methylidene]amino]guanidine] | – | YES | 140% | – | –
11 | NC(N)=N/N=C/c1c(Cl)cccc1Cl [Guanabenz, 2-(2,6-dichlorobenzylidene)hydrazinecarboximidamide] | – | – | – | – | binding to PPP1R15A [5]: binding to a regulatory subunit of protein phosphatase 1, PPP1R15A (GADD34); choroidal blood flow [6]: increased choroidal blood flow markedly; protection against lethal effects of Insulin Akita mutant expression [7]: protection against the lethal effects; translation inhibition in non-stressed cells [8]: does not inhibit translation in non-stressed cells; EC50 ([9]; read-out: median effective concentration (cells surviving ER stress)): ~0.4 µM; protection of cells from cytotoxic ER stress (in words) [9]: doubled the number of cells surviving ER stress; protection of RPE from NalO3-induced degeneration [10]: significantly protected; binding to PPP1R15B [11]: does not bind; symptoms of prion infected mice [12]: reduces the symptoms; mutant huntingtin accumulation [13]: attenuating accumulation of mutant Huntingtin; mutant huntingtin accumulation ([13]; listed as guanabenz): reduces mutant huntingtin accumulation in cells; development of choroidal neovascularization (CNV) [14]: inhibited the development of choroidal neovascularization (CNV)
12 | O=C(/C=C/c1ccccc1)NC(NC(=S)Nc1cccc2cccnc12)C(Cl)(Cl)Cl (stereo not shown) [Salubrinal] | – | – | – | – | disease manifestations [15]: significantly attenuates disease manifestations; life span [16]: extends the life span; motor capacity in rotarod analysis ([17]; P0S63del mice): regained almost normal motor capacity; toxicity ([17]; mouse, in vivo): toxic
13 | Clc1cccc(Cl)c1N=C1NCCN1 [clonidine] | – | – | – | – | protection of cells from cytotoxic ER stress (in words) [9]: Neither the α2-adrenergic receptor agonist clonidine, nor the α2-adrenergic receptor antagonist efaroxan protected cells
14 | CCC1(C2=NCCN2)Cc2ccccc2O1 (stereo not shown) [efaroxan] | – | – | – | – | protection of cells from cytotoxic ER stress (in words) [9]: Neither the α2-adrenergic receptor agonist clonidine, nor the α2-adrenergic receptor antagonist efaroxan protected cells
